# Experimental data taken from US11180494B2, “Substituted amino acids as integrin inhibitors” (Pliant Therapeutics, Inc., priority 2018, dated 2021).
# Target: human integrin αvβ6 (Homo sapiens (Human), UniProt P06756+P18564)
# Experiment: Proximity-based integrin receptor binding assay (ALPHASCREEN) for inhibitor potency
# Details: inhibition of binding of TGF-b1 LAP to human integrin αvβ6; values given in ranges
# Method in brief: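 AlphaScreen: integrin, compound, TGF-b1 LAP, biotinylated anti-LAP antibody and acceptor beads incubated 2 hours, then streptavidin donor beads 30 minutes, at room temperature in 50 mM Tris-HCl pH 7.5, 0.1% BSA, 1 mM CaCl2 and MgCl2. Excitation 680 nm, emission 520-620 nm; IC50 by four-parameter logistic fit.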
# Chain of human integrin αvβ6 (P06756 31-992): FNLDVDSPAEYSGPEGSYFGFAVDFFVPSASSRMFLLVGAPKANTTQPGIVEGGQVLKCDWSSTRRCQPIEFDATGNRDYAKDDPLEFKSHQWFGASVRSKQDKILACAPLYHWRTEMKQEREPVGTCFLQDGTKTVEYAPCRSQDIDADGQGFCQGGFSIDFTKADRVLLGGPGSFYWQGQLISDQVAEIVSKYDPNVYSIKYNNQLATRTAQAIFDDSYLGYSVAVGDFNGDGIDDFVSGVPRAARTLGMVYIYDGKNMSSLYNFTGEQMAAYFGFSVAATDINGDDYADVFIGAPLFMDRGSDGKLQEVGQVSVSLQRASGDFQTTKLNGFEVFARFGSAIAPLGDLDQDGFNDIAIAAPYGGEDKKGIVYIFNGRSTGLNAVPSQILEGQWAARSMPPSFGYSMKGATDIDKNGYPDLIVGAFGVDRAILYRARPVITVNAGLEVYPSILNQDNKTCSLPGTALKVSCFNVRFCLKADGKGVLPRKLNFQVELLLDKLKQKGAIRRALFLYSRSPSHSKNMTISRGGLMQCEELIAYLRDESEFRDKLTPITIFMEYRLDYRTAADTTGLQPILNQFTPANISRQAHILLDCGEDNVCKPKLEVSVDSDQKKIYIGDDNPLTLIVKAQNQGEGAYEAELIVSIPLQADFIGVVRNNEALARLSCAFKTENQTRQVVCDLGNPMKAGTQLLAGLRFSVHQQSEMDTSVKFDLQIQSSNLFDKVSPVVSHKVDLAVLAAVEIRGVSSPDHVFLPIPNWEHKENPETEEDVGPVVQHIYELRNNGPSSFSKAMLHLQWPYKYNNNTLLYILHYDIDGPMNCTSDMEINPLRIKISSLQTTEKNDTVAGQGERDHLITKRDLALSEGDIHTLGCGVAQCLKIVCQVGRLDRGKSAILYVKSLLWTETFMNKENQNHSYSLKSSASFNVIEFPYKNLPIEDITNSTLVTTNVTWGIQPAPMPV
# Chain of human integrin αvβ6 (P18564 22-707): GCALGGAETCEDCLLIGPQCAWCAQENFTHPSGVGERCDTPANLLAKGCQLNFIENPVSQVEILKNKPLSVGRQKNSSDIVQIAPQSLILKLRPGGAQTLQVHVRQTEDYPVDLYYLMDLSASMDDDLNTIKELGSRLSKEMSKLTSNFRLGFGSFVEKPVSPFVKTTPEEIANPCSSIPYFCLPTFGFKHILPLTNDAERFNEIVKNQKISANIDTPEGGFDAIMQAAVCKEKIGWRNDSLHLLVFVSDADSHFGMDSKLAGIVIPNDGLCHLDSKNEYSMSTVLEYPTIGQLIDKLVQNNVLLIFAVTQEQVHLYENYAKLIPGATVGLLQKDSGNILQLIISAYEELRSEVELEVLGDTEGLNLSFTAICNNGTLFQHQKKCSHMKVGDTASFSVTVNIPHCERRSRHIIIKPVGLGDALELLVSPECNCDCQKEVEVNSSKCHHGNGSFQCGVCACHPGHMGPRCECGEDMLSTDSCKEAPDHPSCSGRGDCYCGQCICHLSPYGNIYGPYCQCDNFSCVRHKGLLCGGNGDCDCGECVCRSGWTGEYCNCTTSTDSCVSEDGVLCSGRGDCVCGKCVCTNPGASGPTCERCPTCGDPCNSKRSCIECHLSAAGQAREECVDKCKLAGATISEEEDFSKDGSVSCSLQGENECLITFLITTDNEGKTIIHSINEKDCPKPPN
row,Structure (SMILES),IC50
1,"O=C(N[C@@H](CCO[C@H]1C[C@H](CCc2ccc3c(n2)NCCC3)C1)C(=O)O)O[C@@H]1CCCC[C@H]1c1ccccc1 [Compound 144, N-((((1R,2S)-2-phenylcyclohexyl)oxy)carbonyl)-O-(trans-3-(2-(5,6,7,8-tetrahydro-1,8-naphthyridin-2-yl)ethyl)cyclobutyl)homoserine]",250 to 1000 nM
2,"Cn1ccc2c(C(=O)N[C@@H](CCO[C@H]3C[C@H](CCc4ccc5c(n4)NCCC5)C3)C(=O)O)ccnc21 [Compound 41, N-(1-methyl-1H-pyrrolo[2,3-b]pyridine-4-carbonyl)-O-(trans-3-(2-(5,6,7,8-tetrahydro-1,8-naphthyridin-2-yl)ethyl)cyclobutyl)homoserine]",< 50 nM
3,"CC(C)(C)OC(=O)N1CC(C)(OC(=O)N[C@@H](CCO[C@H]2C[C@H](CCc3ccc4c(n3)NCCC4)C2)C(=O)O)C1 [Compound 127, N-(((1-(tert-butoxycarbonyl)-3-methylazetidin-3-yl)oxy)carbonyl)-O-(trans-3-(2-(5,6,7,8-tetrahydro-1,8-naphthyridin-2-yl)ethyl)cyclobutyl)homoserine]",< 50 nM
4,"CC1(OC(=O)N[C@@H](CCO[C@H]2C[C@H](CCc3ccc4c(n3)NCCC4)C2)C(=O)O)CN(S(C)(=O)=O)C1 [Compound 128, N-(((3-methyl-1-(methylsulfonyl)azetidin-3-yl)oxy)carbonyl)-O-(trans-3-(2-(5,6,7,8-tetrahydro-1,8-naphthyridin-2-yl)ethyl)cyclobutyl)homoserine]",50 to 250 nM
5,"O=C(N[C@@H](CCO[C@H]1C[C@H](CCc2ccc3c(n2)NCCC3)C1)C(=O)O)c1ccc(Cl)c(Cl)c1 [Compound 34, N-(3,4-dichlorobenzoyl)-O-(trans-3-(2-(5,6,7,8-tetrahydro-1,8-naphthyridin-2-yl)ethyl)cyclobutyl)homoserine]",50 to 250 nM
6,"CC(C)(C(=O)NC(CCO[C@H]1C[C@H](CCc2ccc3c(n2)NCCC3)C1)C(=O)O)c1cccnc1 (stereo partly drawn) [Compound 106, N-(2-methyl-2-(pyridin-3-yl)propanoyl)-O-(trans-3-(2-(5,6,7,8-tetrahydro-1,8-naphthyridin-2-yl)ethyl)cyclobutyl)homoserine]",< 50 nM
7,"CC(C)(CO)C(=O)NC(CCO[C@H]1C[C@H](CCc2ccc3c(n2)NCCC3)C1)C(=O)O (stereo partly drawn) [Compound 89, N-(3-hydroxy-2,2-dimethylpropanoyl)-O-(trans-3-(2-(5,6,7,8-tetrahydro-1,8-naphthyridin-2-yl)ethyl)cyclobutyl)homoserine]",250 to 1000 nM
8,"CC(C)(CO)C(=O)NC(CCO[C@H]1C[C@H](CCc2ccc3c(n2)NCCC3)C1)C(=O)O (stereo partly drawn) [Compound 104, N-(3-hydroxy-2,2-dimethylpropanoyl)-O-(trans-3-(2-(5,6,7,8-tetrahydro-1,8-naphthyridin-2-yl)ethyl)cyclobutyl)homoserine]",< 50 nM
9,"C[C@H](CNC(=O)OC(C)(C)C)OC(=O)N[C@@H](CCO[C@H]1C[C@H](CCc2ccc3c(n2)NCCC3)C1)C(=O)O [Compound 153, N—((((R)-1-((tert-butoxycarbonyl)amino)propan-2-yl)oxy)carbonyl)-O-(trans-3-(2-(5,6,7,8-tetrahydro-1,8-naphthyridin-2-yl)ethyl)cyclobutyl)homoserine]",< 50 nM
10,"CC1(OC(=O)N[C@@H](CCO[C@H]2C[C@H](CCc3ccc4c(n3)NCCC4)C2)C(=O)O)CC1 [Compound 113, N-((1-methylcyclopropoxy)carbonyl)-O-(trans-3-(2-(5,6,7,8-tetrahydro-1,8-naphthyridin-2-yl)ethyl)cyclobutyl)homoserine]",< 50 nM
11,"CC(C)(C)OC(=O)NCC1(C(=O)N[C@@H](CCO[C@H]2C[C@@H](CCc3ccc4c(n3)NCCC4)C2)C(=O)O)CCOCC1 [Compound 184, N-(4-(((tert-butoxycarbonyl)amino)methyl)tetrahydro-2H-pyran-4-carbonyl)-O-(cis-3-(2-(5,6,7,8-tetrahydro-1,8-naphthyridin-2-yl)ethyl)cyclobutyl)homoserine]",< 50 nM
12,"CC1(C(=O)NC(CCO[C@H]2C[C@H](CCc3ccc4c(n3)NCCC4)C2)C(=O)O)COC1 (stereo partly drawn) [Compound 103, N-(3-methyloxetane-3-carbonyl)-O-(trans-3-(2-(5,6,7,8-tetrahydro-1,8-naphthyridin-2-yl)ethyl)cyclobutyl)homoserine]",< 50 nM
13,"O=C(O)C(CCO[C@H]1C[C@H](CCc2ccc3c(n2)NCCC3)C1)NC(=O)[C@@H](CO)c1ccccc1 (stereo partly drawn) [Compound 42, N—((R)-3-hydroxy-2-phenylpropanoyl)-O-(trans-3-(2-(5,6,7,8-tetrahydro-1,8-naphthyridin-2-yl)ethyl)cyclobutyl)homoserine]",50 to 250 nM

# Further lines, results first:
row,IC50,Structure (SMILES)
1,< 50 nM,"O=C(NC(CCOCCCCc1ccc2c(n1)NCCC2)C(=O)O)c1cccc(F)c1Cl (racemic) [Compound 1, N-(2-chloro-3-fluorobenzoyl)-O-(4-(5,6,7,8-tetrahydro-1,8-naphthyridin-2-yl)butyl)homoserine]"
2,< 50 nM,"O=C(O)C(CCO[C@H]1C[C@H](CCc2ccc3c(n2)NCCC3)C1)NC(=O)C1(c2ccccc2)CCC1 (stereo partly drawn) [Compound 84, N-(1-phenylcyclobutane-1-carbonyl)-O-(trans-3-(2-(5,6,7,8-tetrahydro-1,8-naphthyridin-2-yl)ethyl)cyclobutyl)homoserine]"
3,< 50 nM,"O=C(N[C@@H](CCO[C@H]1C[C@H](CCc2ccc3c(n2)NCCC3)C1)C(=O)O)c1ccc(F)cc1 [Compound 16, N-(4-fluorobenzoyl)-O-(trans-3-(2-(5,6,7,8-tetrahydro-1,8-naphthyridin-2-yl)ethyl)cyclobutyl)homoserine]"
4,250 to 1000 nM,"CC(C)(C)c1nccc(N[C@@H](CCO[C@H]2C[C@H](CCc3ccc4c(n3)NCCC4)C2)C(=O)O)n1 [Example 225, N-(2-(tert-butyl)pyrimidin-4-yl)-O-(trans-3-(2-(5,6,7,8-tetrahydro-1,8-naphthyridin-2-yl)ethyl)cyclobutyl)homoserine]"
5,> 1000 nM,"O=C(N[C@@H](CCO[C@H]1C[C@H](CCc2ccc3c(n2)NCCC3)C1)C(=O)O)C1CCc2ccccc21 (single isomer, unassigned) [95*,†]"
6,50 to 250 nM,"O=C(N[C@@H](CCO[C@H]1C[C@H](CCc2ccc3c(n2)NCCC3)C1)C(=O)O)c1ccccc1-c1ccccn1 [Compound 166, N-(2-(pyridin-2-yl)benzoyl)-O-(trans-3-(2-(5,6,7,8-tetrahydro-1,8-naphthyridin-2-yl)ethyl)cyclobutyl)homoserine]"
7,< 50 nM,"O=C(NC(CCO[C@H]1C[C@H](CCc2ccc3c(n2)NCCC3)C1)C(=O)O)C1Cc2ccccc2C1 (stereo partly drawn) [Compound 107, N-(2,3-dihydro-1H-indene-2-carbonyl)-O-(trans-3-(2-(5,6,7,8-tetrahydro-1,8-naphthyridin-2-yl)ethyl)cyclobutyl)homoserine]"
8,< 50 nM,"O=C(NC(CCO[C@H]1C[C@H](CCc2ccc3c(n2)NCCC3)C1)C(=O)O)c1cccc(F)c1Cl (stereo partly drawn) [Compound 64, N-(2-chloro-3-fluorobenzoyl)-O-(trans-3-(2-(5,6,7,8-tetrahydro-1,8-naphthyridin-2-yl)ethyl)cyclobutyl)homoserine]"

# Same assay, conditions: inhibition of binding of TGF-b1 LAP to human integrin αvβ6; values given in ranges; listed as 65**
row,IC50,Structure (SMILES)
1,< 50 nM,"O=C(NC(CCO[C@H]1C[C@H](CCc2ccc3c(n2)NCCC3)C1)C(=O)O)c1cccc(-c2cncs2)c1 (stereo partly drawn) [Compound 65, O-(trans-3-(2-(5,6,7,8-tetrahydro-1,8-naphthyridin-2-yl)ethyl)cyclobutyl)-N-(3-(thiazol-5-yl)benzoyl)homoserine]"
